Data published in paper PMC9909137 (Archives of Virology, 2023).
Like-named read-outs stand apart in the source and are kept apart here.

How the values were obtained:
[1] = test system: A/teal/Egypt/MB.D125OP/2015 (H7N3, 125OP); test: organism not typed; format: cell-based, avian influenza H7N3 virus; conditions: MDCK, 72 h, read-out: IC50 125OP
[2] = test system: A/teal/Egypt/MB.D128OP/2015 (H7N3, 128OP); test: organism not typed; format: cell-based, avian influenza H7N3 virus; conditions: read-out: IC50 128OP
[3] = test system: A/teal/Egypt/MB.D487OP/2016 (H7N3, 487OP); test: organism not typed; format: cell-based, avian influenza H7N3 virus; conditions: MDCK, 72 h, read-out: IC50 487OP
[4] = test system: A/northern shoveler/Egypt/MB.D690OP/2016 (H7N3, 690OP); test: organism not typed; format: cell-based, avian influenza H7N3 virus; conditions: MDCK, 72 h, read-out: IC50 690OP
[5] = test system: A/Puerto Rico/8/34 (H1N1); test: microbe, parasite or virus in culture; format: cell-based; conditions: Influenza A virus, H1N1, MDCK, 72 h, read-out: IC50 H1N1
in vitro = conditions: dog
[6] = test system: Madin-Darby canine kidney (MDCK) cells; conditions: dog

NC12CC3CC(CC(C3)C1)C2 [Amantadine, amantadine]
IC50 [1]: 17 µM
IC50 ([2]; MDCK, 72 h): 45.2 µM
IC50 [3]: 5.17 µM
IC50 [4]: 6.5 µM
IC50 [5]: 77.3 µM
CC50 (in vitro): 584 µM

CC(=O)N[C@H]1[C@H]([C@H](O)[C@H](O)CO)OC(C(=O)O)=C[C@@H]1N=C(N)N [Zanamivir, zanamivir]
IC50 [1]: 17.1 µM
IC50 ([2]; MDCK, 72 h): 85 µM
IC50 [3]: 14.1 µM
IC50 [4]: 23.3 µM
IC50 [5]: 180 µM
CC50 (in vitro): 1110 µM

CCOC(=O)C1=C[C@@H](OC(CC)CC)[C@H](NC(C)=O)[C@@H](N)C1 [Oseltamivir, oseltamivir]
IC50 [1]: 408 µM
IC50 ([2]; MDCK, 72 h): 85.7 µM
IC50 [3]: 15.7 µM
IC50 [4]: 6.46 µM
IC50 [5]: 51.2 µM
CC50 (in vitro): 516 µM

CCC(CC)COC(=O)[C@H](C)N[P@](=O)(OC[C@H]1O[C@@](C#N)(c2ccc3c(N)ncnn23)[C@H](O)[C@@H]1O)Oc1ccccc1 [Remdesivir, remdesivir]
IC50 [1]: 44.5 µM
IC50 ([2]; MDCK, 72 h): 26 µM
IC50 [3]: 19.1 µM
IC50 [4]: 41.6 µM
IC50 [5]: 140 µM
CC50 [6]: 997 µM

NC(=O)c1nc(F)c[nH]c1=O [Favipiravir, favipiravir]
IC50 [1]: 3.9 µM
IC50 ([2]; MDCK, 72 h): 6.02 µM
IC50 [2]: 6.02 µM
IC50 [3]: 5.4 µM
IC50 [4]: 4.5 µM
IC50 [5]: 57.7 µM
CC50 (in vitro): 1250 µM
